Measured values reported in ChEMBL document CHEMBL4616628, “Unexpected small molecules as novel SIRT2 suicide inhibitors” (Bioorg Med Chem, 2020).
Calls of active or inactive are those of the source. No cut-off for these calls is given here.

Tests used:
[1] = target: NAD-dependent protein deacylase sirtuin-5, mitochondrial (Homo sapiens, UniProt Q9NXA8); experiment: Inhibition of SIRT5 desuccinylation activity (unknown origin) using H3K9Su (4 to 15 residues) as substrate by HPLC analysis
[2] = target: T1, NAD-dependent protein deacetylase sirtuin-1 (Homo sapiens, UniProt Q96EB6); experiment: Inhibition of SIRT1 deacetylation activity (unknown origin) using H3K9Ac (4 to 15 residues) as substrate by HPLC analysis
T1 sequence (Q96EB6 whole entry): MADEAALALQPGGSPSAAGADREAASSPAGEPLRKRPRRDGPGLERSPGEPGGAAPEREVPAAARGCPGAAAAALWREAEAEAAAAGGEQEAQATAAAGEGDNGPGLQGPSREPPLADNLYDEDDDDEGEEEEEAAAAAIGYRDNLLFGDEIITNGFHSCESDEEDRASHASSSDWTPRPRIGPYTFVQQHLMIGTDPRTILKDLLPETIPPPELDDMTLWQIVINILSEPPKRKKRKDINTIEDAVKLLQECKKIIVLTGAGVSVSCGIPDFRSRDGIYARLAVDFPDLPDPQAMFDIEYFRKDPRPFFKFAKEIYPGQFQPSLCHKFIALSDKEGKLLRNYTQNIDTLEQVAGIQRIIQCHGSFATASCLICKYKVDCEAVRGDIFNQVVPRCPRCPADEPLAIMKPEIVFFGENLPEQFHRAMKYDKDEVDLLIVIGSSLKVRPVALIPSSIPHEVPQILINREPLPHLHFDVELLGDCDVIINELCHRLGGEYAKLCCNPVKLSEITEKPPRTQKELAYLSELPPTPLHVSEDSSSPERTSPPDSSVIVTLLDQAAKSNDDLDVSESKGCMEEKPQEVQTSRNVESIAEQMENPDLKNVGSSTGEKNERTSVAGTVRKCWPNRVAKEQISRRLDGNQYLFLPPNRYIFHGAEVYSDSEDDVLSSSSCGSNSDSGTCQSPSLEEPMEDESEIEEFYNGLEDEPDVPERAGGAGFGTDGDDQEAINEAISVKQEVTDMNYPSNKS

[3] = target: T2, NAD-dependent protein deacetylase sirtuin-2 (Homo sapiens, UniProt Q8IXJ6); experiment: Inhibition of SIRT2 deacetylation activity (unknown origin) using H3K9Ac ( 4 to 15 residues) as substrate by HPLC analysis
T2 sequence (Q8IXJ6 whole entry): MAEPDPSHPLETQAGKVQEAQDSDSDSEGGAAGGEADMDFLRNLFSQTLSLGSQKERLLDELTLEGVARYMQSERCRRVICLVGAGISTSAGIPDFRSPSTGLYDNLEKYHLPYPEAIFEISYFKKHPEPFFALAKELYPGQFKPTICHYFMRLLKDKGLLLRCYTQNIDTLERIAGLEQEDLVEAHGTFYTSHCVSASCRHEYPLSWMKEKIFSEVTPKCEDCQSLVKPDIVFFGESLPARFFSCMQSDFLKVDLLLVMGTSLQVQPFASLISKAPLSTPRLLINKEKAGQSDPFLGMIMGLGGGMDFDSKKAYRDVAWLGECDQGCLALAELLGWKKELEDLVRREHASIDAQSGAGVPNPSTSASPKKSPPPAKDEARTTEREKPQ

[4] = target: T3, NAD-dependent protein deacetylase sirtuin-3, mitochondrial (Homo sapiens, UniProt Q9NTG7); experiment: Inhibition of SIRT3 deacetylation activity (unknown origin) using H3K9Ac (4 to 15 residues) as substrate by HPLC analysis
T3 sequence (Q9NTG7 whole entry): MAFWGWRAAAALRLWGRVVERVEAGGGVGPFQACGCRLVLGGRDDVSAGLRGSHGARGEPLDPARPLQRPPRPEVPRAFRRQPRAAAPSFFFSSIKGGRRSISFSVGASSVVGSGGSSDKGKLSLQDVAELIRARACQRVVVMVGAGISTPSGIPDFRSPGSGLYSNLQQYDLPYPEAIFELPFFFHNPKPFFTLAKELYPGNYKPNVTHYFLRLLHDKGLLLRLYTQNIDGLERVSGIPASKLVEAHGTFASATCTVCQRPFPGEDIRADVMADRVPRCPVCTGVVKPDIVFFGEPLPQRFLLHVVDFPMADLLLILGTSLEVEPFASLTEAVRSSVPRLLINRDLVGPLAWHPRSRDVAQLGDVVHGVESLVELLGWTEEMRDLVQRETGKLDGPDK

[5] = target: T2, NAD-dependent protein deacetylase sirtuin-2; experiment: Inhibition of SIRT2 deacetylation activity (unknown origin) using H4K8Ac (3 to 13 residues) as substrate by HPLC analysis
[6] = target: T2, NAD-dependent protein deacetylase sirtuin-2; experiment: Inhibition of SIRT2 defatty-acylation activity (unknown origin) using H4K8-Myr (3 to 13 residues) as substrate by HPLC analysis
[7] = target: T2, NAD-dependent protein deacetylase sirtuin-2; experiment: Inhibition of SIRT2 debenzoylation activity (unknown origin) using benzoylated histone H4K8 peptide (3 to 13 residues ) as substrate by HPLC analysis
[8] = species: Homo sapiens; experiment: Selectivity ratio of IC50 for inhibition of SIRT1 deacetylation activity (unknown origin) to IC50 for inhibition of SIRT2 deacetylation activity (unknown origin)
[9] = species: Homo sapiens; experiment: Selectivity ratio of IC50 for inhibition of SIRT3 deacetylation activity (unknown origin) to IC50 for inhibition of SIRT2 deacetylation activity (unknown origin)
[10] = species: Homo sapiens; experiment: Selectivity ratio of IC50 for inhibition of SIRT5 desuccinylation activity (unknown origin) to IC50 for inhibition of SIRT2 deacetylation activity (unknown origin)
[11] = target: T4, NAD-dependent protein deacetylase sirtuin-2 (Homo sapiens) (UniProt Q8IXJ6); experiment: Inhibition of SIRT2 deacetylation activity (unknown origin) assessed as increase in substrate apparent Km at 2 uM using H4K8Ac (3 to 13 residues) as substrate
T4 sequence (whole entry): T2 sequence (Q8IXJ6 whole entry)

[12] = target: T4, NAD-dependent protein deacetylase sirtuin-2 (Homo sapiens); experiment: Irreversible inhibition of SIRT2 deacetylation activity (unknown origin) up to 40 uM using H4K8Ac (3 to 13 residues) as substrate

NAD-dependent protein deacylase sirtuin-5, mitochondrial, sequence (Q9NXA8 whole entry, the tested form may be a part): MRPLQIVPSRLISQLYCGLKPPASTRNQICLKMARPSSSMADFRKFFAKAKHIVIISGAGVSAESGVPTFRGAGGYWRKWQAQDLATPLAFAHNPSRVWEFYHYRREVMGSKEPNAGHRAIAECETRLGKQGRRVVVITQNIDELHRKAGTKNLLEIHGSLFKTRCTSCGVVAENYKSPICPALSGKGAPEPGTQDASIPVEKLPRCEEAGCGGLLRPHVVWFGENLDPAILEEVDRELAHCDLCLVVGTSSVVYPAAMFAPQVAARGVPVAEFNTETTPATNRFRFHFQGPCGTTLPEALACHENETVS

SMILES | IC50 [1] | IC50 [2] | IC50 [3] | IC50 [4] | IC50 [5] | IC50 [6] | IC50 [7] | Ratio IC50 [8] | Ratio IC50 [9] | Ratio IC50 [10] | inhibition [11] | inhibition [12]
O=C(On1nnc2ccccc21)c1cc[nH]c1 | > 200 µM | > 200 µM | 56.6 µM | > 200 µM | – | – | – | – | – | – | – | –
O=C(On1nnc2ncccc21)c1c[nH]c2ccc(Br)cc12 | > 200 µM | 40.3 µM | 77.1 µM | – | – | – | – | – | – | – | – | –
Cc1cc(C)nc(SCC(=O)Nc2ncc(Cc3cccc4ccccc34)s2)n1 | > 200 µM | > 200 µM | – | > 200 µM | – | – | – | – | – | – | – | –
O=C(On1nnc2ccccc21)c1ccc[nH]1 | > 200 µM | > 200 µM | 42.7 µM | > 200 µM | – | – | – | – | – | – | – | –
O=C(On1nnc2ccccc21)c1c[nH]c2ccccc12 | > 200 µM | > 200 µM | 14.3 µM | > 200 µM | 22.1 µM | 73.6 µM | 81 µM | 10 | 10 | 10 | Active | Active
Cc1ccc2[nH]cc(C(=O)On3nnc4ccccc43)c2c1 | > 200 µM | 51.9 µM | 74 µM | 84.9 µM | – | – | – | – | – | – | – | –
